The record followed here is ChEMBL document CHEMBL1140943, “Third-generation immucillins: syntheses and bioactivities of acyclic immucillin inhibitors of human purine nucleoside phosphorylase” (J Med Chem, 2009).

Molecules are shown by their SMILES.

The experiment concerns the target T1, Purine nucleoside phosphorylase (Homo sapiens, UniProt P00491).
T1 sequence (P00491 whole entry): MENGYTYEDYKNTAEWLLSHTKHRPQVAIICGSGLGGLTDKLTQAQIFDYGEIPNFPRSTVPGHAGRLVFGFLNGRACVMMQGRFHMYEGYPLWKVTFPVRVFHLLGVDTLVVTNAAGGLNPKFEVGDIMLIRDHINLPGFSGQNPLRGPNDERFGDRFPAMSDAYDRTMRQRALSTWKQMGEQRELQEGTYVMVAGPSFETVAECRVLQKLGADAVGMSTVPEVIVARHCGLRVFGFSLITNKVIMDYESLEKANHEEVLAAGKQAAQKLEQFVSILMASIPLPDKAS
Description: Inhibition of human PNP by xanthine-oxidase coupled assay
A word on the Ki: it is the dissociation constant of the complex between target and ligand, obtained from inhibition or displacement. Higher therefore signals weaker binding. In turn, `Nc1nc2c(CNC(CO)CO)c[nH]c2c(=O)[nH]1` displayed a Ki of 2.1 pM.
As for `Nc1nc2c(CN[C@H](CO)[C@H](O)CO)c[nH]c2c(=O)[nH]1`, the affinity corresponds to a Ki of 3.4 pM.
For `O=c1[nH]cnc2c(CN3C[C@H](CO)[C@@H](O)C3)c[nH]c12` [ULODESINE] the value was 8.5 pM.
